Results on 14 compounds are retold here after patent US9517988B2 (Sichuan Haisco Pharmaceutical Co., Ltd., priority 2013, dated 2016).

The structures appear in SMILES notation. Where a name gives a salt, the structure may show the parent alone. Read-outs that look alike come from different tables or passages of the source.

A short description of series [1]: Righting reflex experiment on mice with prodrugs. To be noted: ICR, mouse, in vivo, mice; for MTD: prodrugs; for LD50: intravenous injection, prodrugs in physiological saline. The series is classed as in vivo. How it is done: (§1) After adapting to the laboratory environment, the SPF-grade ICR mice were fasted for 12 hours.
A further series relates to ICR mice. The series can be described thus: Righting reflex experiment on mice with prodrugs. Format: in vivo. To be noted: for ED50: Mus musculus; for SI: safety index, LD5/ED95, mice; for TI: therapeutic index, LD50/ED50, mice. As for the experimental part:
as §1

[2] abbreviates: mice, intravenous injection, prodrugs formulated with physiological saline, read-out: ED50.
Where [3] appears, read: mice, intravenous injection, prodrugs.

For `CC(C)C[C@H](N)C(=O)OCOc1c(C(C)C)cccc1[C@H](C)C1CC1` [Compound 60, [2-[(1R)-1-cyclopropylethyl]-6-isopropyl-phenoxy]methyl(2S)-2-amino-4-methyl-pentanoate trifluoroacetate], in series [1] (both sexes, intravenous), the MTD is 50 mg/kg. The LD50 (usually the dose at which mortality reaches 50%) in series [1] (both sexes) came to 79.6 mg/kg. Also, in the series with ICR mice (setting [2]), the 50% effective dose (ED50) – broadly, the midpoint of the dose-response relation – is 13.8 mg/kg. In the series on ICR mice (setting [3]), the Anesthesia induction time was 6.0 s and the Anesthesia maintenance time was 1473.0 s. For the same compound, in the series on ICR mice (prodrugs), the SI amounted to 3.1 and the TI stood at 5.8.
Consider `CC(C)c1cccc([C@H](C)C2CC2)c1OCOC(=O)C(NC(=O)OC(C)(C)C)C(C)C` (stereo in doubt) [Compound 57, [2-[(1R)-1-cyclopropylethyl]-6-isopropyl-phenoxy]methyl(2R)-2-(tertbutoxycarbonylamino)-3-methyl-butanoate], for which the MTD in series [1] (both sexes, intravenous) is 80 mg/kg. For the same compound, the LD50 in series [1] (both sexes) was found to be 120 mg/kg. Moreover, in the series on ICR mice (setting [2]), the ED50 came to 36.7 mg/kg. In addition, in the series on ICR mice (setting [3]), the Anesthesia induction time came out at 135.8 s and the Anesthesia maintenance time was found to be 1931.2 s. In the series with ICR mice (prodrugs), the SI was determined as 1.3 and the TI was 3.3.
As to `CC(C)c1cccc([C@H](C)C2CC2)c1OCOP(=O)([O-])[O-].[K+].[K+]` [Compound 45], the MTD in series [1] (both, intravenous) was found to be 50 mg/kg. Further, the LD50 in series [1] (both) stood at 72.6 mg/kg.
Take `CC(C)c1cccc([C@H](C)C2CC2)c1OCOC(=O)c1cccnc1` [Compound 51, [2-[(1R)-1-cyclopropylethyl]-6-isopropyl-phenoxy]methylpyridine-3-carboxylate]: the MTD in series [1] (both sexes, intravenous) amounted to 40 mg/kg. Also, the LD50 in series [1] (both sexes) amounted to 80 mg/kg. Moreover, in the series on ICR mice (setting [2]), the ED50 came to 28.3 mg/kg. Further, in the series with ICR mice (setting [3]), the Anesthesia induction time is given as 159.0 s and the Anesthesia maintenance time worked out at 1159.9 s. In the series with ICR mice (prodrugs), the SI stood at 1.2 and the TI is 2.8.
As to `CC(C)c1cccc([C@H](C)C2CC2)c1OCOC(=O)[C@@H](N)Cc1ccccc1` [Compound 62, [2-[(1R)-1-cyclopropylethyl]-6-isopropyl-phenoxy]methyl(2S)-2-amino-3-phenylpropanoate trifluoroacetate], in series [1] (both sexes, intravenous), the MTD is 30 mg/kg. In addition, the LD50 in series [1] (both sexes) came to 45.6 mg/kg. The ED50 in the series with ICR mice (setting [2]) is 7.7 mg/kg. For the same compound, in the series with ICR mice (setting [3]), the Anesthesia induction time was less than 15.0 s and the Anesthesia maintenance time was found to be 696.9 s. The “ED50 and efficacy compared with propofol” value in the series with ICR mice (mice, prodrugs) was “smaller ED50 value and higher efficacy than propofol”. In addition, in the series on ICR mice (prodrugs), the SI is given as 1.6 and the TI was 5.9.
Take `C[C@@H](c1cccc([C@H](C)C2CC2)c1OCOP(=O)(O)O)C1CC1` [Compound 75, sodium (2,6-bis((R)-1-cyclopropylethyl)phenoxy)methyl phosphate]: the MTD in series [1] (both sexes, intravenous) was determined as 30 mg/kg. For the same compound, the LD50 in series [1] (both sexes) is 42.4 mg/kg. Further, the ED50 in the series on ICR mice (setting [2]) amounted to 11.7 mg/kg. Moreover, in the series on ICR mice (setting [3]), the Anesthesia induction time turned out to be 129.2 s and the Anesthesia maintenance time stood at 2070.4 s. Further, in the series on ICR mice (prodrugs), the SI is given as 2.3 and the TI was found to be 3.6.
On to `CC[C@@H](C)c1cccc([C@H](C)C2CC2)c1OCOP(=O)([O-])[O-].[Na+].[Na+]` [Compound 78], for which the MTD in series [1] (both, intravenous) stood at 40 mg/kg. The LD50 in series [1] (both) came out at 63.7 mg/kg. The ED50 in the series with ICR mice (setting [2]) turned out to be 15.9 mg/kg. Besides, in the series with ICR mice (setting [3]), the Anesthesia induction time came to 65.2 s and the Anesthesia maintenance time worked out at 2634.6 s. For the same compound, in the series with ICR mice (prodrugs), the SI stood at 2.9 and the TI is listed as 4.0.
As for `CC(=O)Oc1ccccc1C(=O)OCOc1c(C(C)C)cccc1[C@H](C)C1CC1` [Compound 38, [2-[(1R)-1-cyclopropylethyl]-6-isopropyl-phenoxy]methyl 2-acetoxybenzoate], the MTD in series [1] (both sexes, intravenous) stood at 50 mg/kg. Further, the LD50 in series [1] (both sexes) was 80 mg/kg. Moreover, the ED50 in the series with ICR mice (setting [2]) amounted to 26.1 mg/kg. For the same compound, in the series with ICR mice (setting [3]), the Anesthesia induction time amounted to 141.0 s and the Anesthesia maintenance time turned out to be 478.9 s. In the series with ICR mice (prodrugs), the SI turned out to be 1.3 and the TI worked out at 3.1.
Turning to `CC[C@H](C)c1cccc([C@H](C)C2CC2)c1OCOP(=O)([O-])[O-].[Na+].[Na+]` [Compound 79], the MTD in series [1] (both, intravenous) was determined as 60 mg/kg. The LD50 in series [1] (both) was 91.8 mg/kg. The ED50 with ICR mice (setting [2]) is 24.3 mg/kg. In addition, in the series on ICR mice (setting [3]), the Anesthesia induction time was 72.5 s and the Anesthesia maintenance time was found to be 2252.1 s. Further, in the series with ICR mice (prodrugs), the SI was 2.1 and the TI was 3.8.
In the case of `CC(C)c1cccc([C@H](C)C2CCC2)c1OCOP(=O)([O-])[O-].[Na+].[Na+]` [Compound 74], the MTD in series [1] (both, intravenous) was 120 mg/kg. For the same compound, the LD50 in series [1] (both) came to 192 mg/kg. Also, the ED50 in the series on ICR mice (setting [2]) is 48.3 mg/kg. In the series on ICR mice (setting [3]), the Anesthesia induction time stood at 96.5 s and the Anesthesia maintenance time is 2378.3 s. For the same compound, in the series on ICR mice (prodrugs), the SI was 2.5 and the TI is reported as 4.0.
Turning to `C[C@H](c1cccc([C@H](C)C2CC2)c1OCOP(=O)(O)O)C1CC1` [Compound 76, sodium (2-((R)-1-cyclopropylethyl)-6-((S)-1-cyclopropylethyl)phenoxy)methyl phosphate], the MTD in series [1] (both sexes, intravenous) came to 80 mg/kg. Further, in series [1] (both sexes), the LD50 was determined as 143 mg/kg. In the series with ICR mice (setting [2]), the ED50 came out at 35.8 mg/kg. In addition, in the series on ICR mice (setting [3]), the Anesthesia induction time is listed as 111.8 s and the Anesthesia maintenance time is 1992.8 s. Besides, in the series on ICR mice (prodrugs), the SI came to 2.5 and the TI was 4.0.
In the case of `CC(C)c1cccc([C@H](C)C2CC2)c1OCOP(=O)(OCOC(=O)C(C)(C)C)OCOC(=O)C(C)(C)C` [Compound 35, [[2-[(1R)-1-cyclopropylethyl]-6-isopropyl-phenoxy]methoxy-(2,2-dimethylpropanoyloxymethoxy)phosphoryl]oxymethyl 2,2-dimethylpropanoate], in series [1] (both sexes), the LD50 is 200 mg/kg and the MTD was found to be 200 mg/kg. In addition, the ED50 in the series with ICR mice (iv) amounted to 39.3 mg/kg. Moreover, in the series with ICR mice (setting [3]), the Anesthesia induction time is listed as less than 15.0 s and the Anesthesia maintenance time is recorded as 1915.5 s. In addition, in the series with ICR mice (prodrugs), the SI is listed as 4.9 and the TI was 5.1.
`CC(C)c1cccc([C@@H](C)C2CC2)c1OCOP(=O)([O-])[O-].[Na+].[Na+]` [Compound 65]: in series [1] (both sexes, intravenous), the MTD is 200 mg/kg. In addition, the LD50 in series [1] (both sexes) came out at 370 mg/kg. The ED50 in the series on ICR mice (setting [2]) worked out at 82.7 mg/kg. Besides, in the series with ICR mice (setting [3]), the Anesthesia induction time was 82.5 s and the Anesthesia maintenance time stood at 3278.0 s. In addition, in the series on ICR mice (prodrugs), the SI is on record as 2.9 and the TI is given as 4.5.
Regarding `C[C@H](c1cccc([C@@H](C)C2CC2)c1OCOP(=O)(O)O)C1CC1` [Compound 77, sodium (2,6-bis((S)-1-cyclopropylethyl)phenoxy)methyl phosphate], the MTD in series [1] (both sexes, intravenous) was determined as 160 mg/kg. Moreover, the LD50 in series [1] (both sexes) was 274 mg/kg. The ED50 in the series on ICR mice (setting [2]) is 94.7 mg/kg. Also, in the series on ICR mice (setting [3]), the Anesthesia induction time stood at 175.4 s and the Anesthesia maintenance time was determined as 1859.1 s. In the series on ICR mice (prodrugs), the SI is recorded as 1.7 and the TI worked out at 2.9.
